Data from PubChem BioAssay AID1963828 (Molecular Pharmacology Branch, DTP, NCI, 2024).

Test system: 991263-137-R1-J2-PDC complex spheroid viability
Assay: Anticancer human tumor 991263-137-R1-J2-PDC patient-derived colon adenocarcinoma cell line growth inhibition [POLQ]
Conditions: for IC50: curve of first compound; for viability, T/C: stronger effect = lower value
Summary of the method: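 Complex spheroid viability model combining PDC tumour cells with endothelial (HUVEC) and MSC stromal cells. Novobiocin, ART-558 or RP6685 were tested singly and in combination with standard and investigational anticancer drugs. Each was titrated in half-log steps from near clinical Cmax, or from 10 microM where Cmax was unknown.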

[1] = second compound 0.0316 µM, first compound 0.0316 µM
[2] = second compound 0.0316 µM, first compound 0.1 µM
[3] = second compound 0.0316 µM, first compound 0.316 µM
[4] = second compound 0.0316 µM, first compound 1 µM
[5] = second compound 0.0316 µM, first compound 3.16 µM
[6] = second compound 0.0316 µM, first compound 10 µM
[7] = second compound 0.1 µM, first compound 0.0316 µM
[8] = second compound 0.1 µM, first compound 0.1 µM
[9] = second compound 0.1 µM, first compound 0.316 µM
[10] = second compound 0.1 µM, first compound 1 µM
[11] = second compound 0.1 µM, first compound 3.16 µM
[12] = second compound 0.1 µM, first compound 10 µM
[13] = second compound 0.316 µM, first compound 0.0316 µM
[14] = second compound 0.316 µM, first compound 0.1 µM
[15] = second compound 0.316 µM, first compound 0.316 µM
[16] = second compound 0.316 µM, first compound 1 µM
[17] = second compound 0.316 µM, first compound 3.16 µM
[18] = second compound 0.316 µM, first compound 10 µM
[19] = second compound 1 µM, first compound 0.0316 µM
[20] = second compound 1 µM, first compound 0.1 µM
[21] = second compound 1 µM, first compound 0.316 µM
[22] = second compound 1 µM, first compound 1 µM
[23] = second compound 1 µM, first compound 3.16 µM
[24] = second compound 1 µM, first compound 10 µM
[25] = second compound 3.16 µM, first compound 0.0316 µM
[26] = second compound 3.16 µM, first compound 0.1 µM
[27] = second compound 3.16 µM, first compound 0.316 µM
[28] = second compound 3.16 µM, first compound 1 µM
[29] = second compound 3.16 µM, first compound 3.16 µM
[30] = second compound 3.16 µM, first compound 10 µM
[31] = second compound 10 µM, first compound 0.0316 µM
[32] = second compound 10 µM, first compound 0.1 µM
[33] = second compound 10 µM, first compound 0.316 µM
[34] = second compound 10 µM, first compound 1 µM
[35] = second compound 10 µM, first compound 3.16 µM
[36] = second compound 10 µM, first compound 10 µM
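Also: spheroids exposed to compounds for 7 days before readout.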
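For viability, T/C in this document: 100% = DMSO vehicle control viability.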

## CCCS(=O)(=O)Nc1ccc(F)c(C(=O)c2c[nH]c3ncc(-c4ccc(Cl)cc4)cc23)c1F + COC1C(OC(N)=O)C(O)C(Oc2ccc3c(O)c(NC(=O)c4ccc(O)c(CC=C(C)C)c4)c(=O)oc3c2C)OC1(C)C
Second compound 0.0316 µM
  IC50: > 10 µM
Second compound 0.1 µM
  IC50: > 10 µM
Second compound 0.316 µM
  IC50: > 10 µM
Second compound 1 µM
  IC50: > 10 µM
Second compound 3.16 µM
  IC50: > 10 µM
Second compound 10 µM
  IC50: > 10 µM
[1]
  viability, T/C: 110%
[2]
  viability, T/C: 98.7%
[3]
  viability, T/C: 106%
[4]
  viability, T/C: 105%
[5]
  viability, T/C: 102%
[6]
  viability, T/C: 104%
[7]
  viability, T/C: 82%
[8]
  viability, T/C: 109%
[9]
  viability, T/C: 97.5%
[10]
  viability, T/C: 85.5%
[11]
  viability, T/C: 129%
[12]
  viability, T/C: 109%
[13]
  viability, T/C: 96.9%
[14]
  viability, T/C: 94.9%
[15]
  viability, T/C: 121%
[16]
  viability, T/C: 130%
[17]
  viability, T/C: 97.9%
[18]
  viability, T/C: 108%
[19]
  viability, T/C: 105%
[20]
  viability, T/C: 103%
[21]
  viability, T/C: 121%
[22]
  viability, T/C: 95.9%
[23]
  viability, T/C: 105%
[24]
  viability, T/C: 84.8%
[25]
  viability, T/C: 102%
[26]
  viability, T/C: 124%
[27]
  viability, T/C: 99.7%
[28]
  viability, T/C: 105%
[29]
  viability, T/C: 89.9%
[30]
  viability, T/C: 97.6%
[31]
  viability, T/C: 94.2%
[32]
  viability, T/C: 118%
[33]
  viability, T/C: 95.2%
[34]
  viability, T/C: 111%
[35]
  viability, T/C: 113%
[36]
  viability, T/C: 110%

## COc1ccc([C@@H](O)c2cc(-c3ncnc4cc(N5CCOCC5)ccc34)c(F)cc2Cl)nn1 + COC1C(OC(N)=O)C(O)C(Oc2ccc3c(O)c(NC(=O)c4ccc(O)c(CC=C(C)C)c4)c(=O)oc3c2C)OC1(C)C
Second compound 0.0316 µM
  IC50: 5.41 µM
Second compound 0.1 µM
  IC50: 4.12 µM
Second compound 0.316 µM
  IC50: 5.53 µM
Second compound 1 µM
  IC50: 2.94 µM
Second compound 3.16 µM
  IC50: 6.38 µM
Second compound 10 µM
  IC50: 6.09 µM
[1]
  viability, T/C: 107%
[2]
  viability, T/C: 96.3%
[3]
  viability, T/C: 90.8%
[4]
  viability, T/C: 76.2%
[5]
  viability, T/C: 71.7%
[6]
  viability, T/C: 31.5%
[7]
  viability, T/C: 99.8%
[8]
  viability, T/C: 98.3%
[9]
  viability, T/C: 84.6%
[10]
  viability, T/C: 91.7%
[11]
  viability, T/C: 55.6%
[12]
  viability, T/C: 30.9%
[13]
  viability, T/C: 82.7%
[14]
  viability, T/C: 107%
[15]
  viability, T/C: 88.5%
[16]
  viability, T/C: 71%
[17]
  viability, T/C: 70.5%
[18]
  viability, T/C: 33%
[19]
  viability, T/C: 95.3%
[20]
  viability, T/C: 107%
[21]
  viability, T/C: 96.8%
[22]
  viability, T/C: 70.7%
[23]
  viability, T/C: 51.9%
[24]
  viability, T/C: 32.6%
[25]
  viability, T/C: 94.3%
[26]
  viability, T/C: 101%
[27]
  viability, T/C: 96.7%
[28]
  viability, T/C: 85.6%
[29]
  viability, T/C: 79.9%
[30]
  viability, T/C: 32.2%
[31]
  viability, T/C: 88.1%
[32]
  viability, T/C: 103%
[33]
  viability, T/C: 94.8%
[34]
  viability, T/C: 111%
[35]
  viability, T/C: 67.1%
[36]
  viability, T/C: 37.1%

## Cn1ncnc1[C@H]1c2n[nH]c(=O)c3cc(F)cc(c23)N[C@@H]1c1ccc(F)cc1 + COC1C(OC(N)=O)C(O)C(Oc2ccc3c(O)c(NC(=O)c4ccc(O)c(CC=C(C)C)c4)c(=O)oc3c2C)OC1(C)C
Second compound 0.0316 µM
  IC50: > 0.1 µM
Second compound 0.1 µM
  IC50: > 0.1 µM
Second compound 0.316 µM
  IC50: > 0.1 µM
Second compound 1 µM
  IC50: > 0.1 µM
Second compound 3.16 µM
  IC50: > 0.1 µM
Second compound 10 µM
  IC50: > 0.1 µM
Second compound 0.0316 µM, first compound 0.000316 µM
  viability, T/C: 122%
Second compound 0.0316 µM, first compound 0.001 µM
  viability, T/C: 107%
Second compound 0.0316 µM, first compound 0.00316 µM
  viability, T/C: 104%
Second compound 0.0316 µM, first compound 0.01 µM
  viability, T/C: 85.5%
[1]
  viability, T/C: 79.3%
[2]
  viability, T/C: 107%
Second compound 0.1 µM, first compound 0.000316 µM
  viability, T/C: 99.8%
Second compound 0.1 µM, first compound 0.001 µM
  viability, T/C: 117%
Second compound 0.1 µM, first compound 0.00316 µM
  viability, T/C: 97.7%
Second compound 0.1 µM, first compound 0.01 µM
  viability, T/C: 83.8%
[7]
  viability, T/C: 105%
[8]
  viability, T/C: 102%
Second compound 0.316 µM, first compound 0.000316 µM
  viability, T/C: 95%
Second compound 0.316 µM, first compound 0.001 µM
  viability, T/C: 122%
Second compound 0.316 µM, first compound 0.00316 µM
  viability, T/C: 75.4%
Second compound 0.316 µM, first compound 0.01 µM
  viability, T/C: 108%
[13]
  viability, T/C: 109%
[14]
  viability, T/C: 110%
Second compound 1 µM, first compound 0.000316 µM
  viability, T/C: 98.1%
Second compound 1 µM, first compound 0.001 µM
  viability, T/C: 117%
Second compound 1 µM, first compound 0.00316 µM
  viability, T/C: 94.2%
Second compound 1 µM, first compound 0.01 µM
  viability, T/C: 106%
[19]
  viability, T/C: 71.5%
[20]
  viability, T/C: 109%
Second compound 3.16 µM, first compound 0.000316 µM
  viability, T/C: 95.9%
Second compound 3.16 µM, first compound 0.001 µM
  viability, T/C: 109%
Second compound 3.16 µM, first compound 0.00316 µM
  viability, T/C: 92.1%
Second compound 3.16 µM, first compound 0.01 µM
  viability, T/C: 102%
[25]
  viability, T/C: 109%
[26]
  viability, T/C: 110%
Second compound 10 µM, first compound 0.000316 µM
  viability, T/C: 95.7%
Second compound 10 µM, first compound 0.001 µM
  viability, T/C: 110%
Second compound 10 µM, first compound 0.00316 µM
  viability, T/C: 121%
Second compound 10 µM, first compound 0.01 µM
  viability, T/C: 98%
[31]
  viability, T/C: 113%
[32]
  viability, T/C: 95.8%
